Literature values as cited in patent US6696413B2 (Hexal AG, priority 1995, dated 2004).

Conditions: 16 hours after application of 300 μg of a 5 percent vitamin E solution in ethanol per cm^2

Substance: vitamin E
- vitamin E found in the horny layer: 10.7%
- vitamin E found in underlying skin layers: about 40.9%
